From US20060263802A1 (priority 2003, published 2006)

Key:
Format in all cases: binding
[1] = system: human monoclonal antibody CRJA
[2] = system: human monoclonal antibody CR57
[3] = system: human monoclonal antibody CR57; remark: listed apart in the source
[4] = system: human monoclonal antibody CRJB
[5] = system: human monoclonal antibody CRJB; remark: listed apart in the source
[6] = system: human monoclonal antibody CRJA; remark: listed apart in the source

Sequence: LHNPYPDYRWLRTVK
- Binding of CRJA to linear peptide (PEPSCAN-ELISA signal) [1]: 86
- Binding of CR57 to linear peptide (PEPSCAN-ELISA signal) [2]: 79
- Binding of CR57 (10 μg/ml) to looped/cyclic peptide (PEPSCAN-ELISA signal) [3]: 99
- Binding of CRJB to linear peptide (PEPSCAN-ELISA signal) [4]: 106
- Binding of CRJB (10 μg/ml) to looped/cyclic peptide (PEPSCAN-ELISA signal) [5]: 93
- Binding of CRJA (10 μg/ml) to looped/cyclic peptide (PEPSCAN-ELISA signal) [6]: 93

Sequence: LHSRVFPSGKCSGVA
- Binding of CRJA to linear peptide (PEPSCAN-ELISA signal) [1]: 134
- Binding of CR57 to linear peptide (PEPSCAN-ELISA signal) [2]: 78
- Binding of CR57 (10 μg/ml) to looped/cyclic peptide (PEPSCAN-ELISA signal) [3]: 110
- Binding of CRJB to linear peptide (PEPSCAN-ELISA signal) [4]: 114
- Binding of CRJB (10 μg/ml) to looped/cyclic peptide (PEPSCAN-ELISA signal) [5]: 111
- Binding of CRJA (10 μg/ml) to looped/cyclic peptide (PEPSCAN-ELISA signal) [6]: 117

Sequence: LIPEMQSSLLQQHME
- Binding of CRJA to linear peptide (PEPSCAN-ELISA signal) [1]: 107
- Binding of CR57 to linear peptide (PEPSCAN-ELISA signal) [2]: 89
- Binding of CR57 (10 μg/ml) to looped/cyclic peptide (PEPSCAN-ELISA) [3]: 98
- Binding of CRJB to linear peptide (PEPSCAN-ELISA signal) [4]: 111
- Binding of CRJB (10 μg/ml) to looped/cyclic peptide (PEPSCAN-ELISA) [5]: 85
- Binding of CRJA (10 μg/ml) to looped/cyclic peptide (PEPSCAN-ELISA) [6]: 91

Sequence: LKGACKLKLCGVLGL
- Binding of CRJA to linear peptide (PEPSCAN-ELISA signal) [1]: 100
- Binding of CR57 to linear peptide (PEPSCAN-ELISA signal) [2]: 340
- binding of antibody CR57 to linear peptide (PEPSCAN OD) [2]: bound
- Binding of CR57 (10 μg/ml) to looped/cyclic peptide (PEPSCAN-ELISA) [3]: 105
- Binding of CRJB to linear peptide (PEPSCAN-ELISA signal) [4]: 90
- Binding of CRJB (10 μg/ml) to looped/cyclic peptide (PEPSCAN-ELISA) [5]: 76
- Binding of CRJA (10 μg/ml) to looped/cyclic peptide (PEPSCAN-ELISA) [6]: 87

Sequence: LKLCGVLGLRLMDGT
- Binding of CRJA to linear peptide (PEPSCAN-ELISA signal) [1]: 100
- Binding of CR57 to linear peptide (PEPSCAN-ELISA signal) [2]: 918
- binding of antibody CR57 to linear peptide (PEPSCAN OD) [2]: bound
- Binding of CR57 (10 μg/ml) to looped/cyclic peptide (PEPSCAN-ELISA) [3]: 89
- Binding of CRJB to linear peptide (PEPSCAN-ELISA signal) [4]: 145
- Binding of CRJB (10 μg/ml) to looped/cyclic peptide (PEPSCAN-ELISA) [5]: 72
- Binding of CRJA (10 μg/ml) to looped/cyclic peptide (PEPSCAN-ELISA) [6]: 90

Sequence: LKVGYILAIKMNGFT
- Binding of CRJA to linear peptide (PEPSCAN-ELISA signal) [1]: 68
- Binding of CR57 to linear peptide (PEPSCAN-ELISA signal) [2]: 78
- Binding of CR57 (10 μg/ml) to looped/cyclic peptide (PEPSCAN-ELISA signal) [3]: 58
- Binding of CRJB to linear peptide (PEPSCAN-ELISA signal) [4]: 112
- Binding of CRJB (10 μg/ml) to looped/cyclic peptide (PEPSCAN-ELISA signal) [5]: 74
- Binding of CRJA (10 μg/ml) to looped/cyclic peptide (PEPSCAN-ELISA signal) [6]: 76

Sequence: LLESSVIPLVHPLAD
- Binding of CRJA to linear peptide (PEPSCAN-ELISA signal) [1]: 92
- Binding of CR57 to linear peptide (PEPSCAN-ELISA signal) [2]: 72
- Binding of CR57 (10 μg/ml) to looped/cyclic peptide (PEPSCAN-ELISA) [3]: 93
- Binding of CRJB to linear peptide (PEPSCAN-ELISA signal) [4]: 117
- Binding of CRJB (10 μg/ml) to looped/cyclic peptide (PEPSCAN-ELISA) [5]: 76
- Binding of CRJA (10 μg/ml) to looped/cyclic peptide (PEPSCAN-ELISA) [6]: 91

Sequence: LLQQHMELLESSVIP
- Binding of CRJA to linear peptide (PEPSCAN-ELISA signal) [1]: 80
- Binding of CR57 to linear peptide (PEPSCAN-ELISA signal) [2]: 78
- Binding of CR57 (10 μg/ml) to looped/cyclic peptide (PEPSCAN-ELISA) [3]: 123
- Binding of CRJB to linear peptide (PEPSCAN-ELISA signal) [4]: 111
- Binding of CRJB (10 μg/ml) to looped/cyclic peptide (PEPSCAN-ELISA) [5]: 129
- Binding of CRJA (10 μg/ml) to looped/cyclic peptide (PEPSCAN-ELISA) [6]: 165

Sequence: LMDGTWVAMQTSNET
- Binding of CRJA to linear peptide (PEPSCAN-ELISA signal) [1]: 102
- Binding of CR57 to linear peptide (PEPSCAN-ELISA signal) [2]: 96
- Binding of CR57 (10 μg/ml) to looped/cyclic peptide (PEPSCAN-ELISA) [3]: 106
- Binding of CRJB to linear peptide (PEPSCAN-ELISA signal) [4]: 106
- Binding of CRJB (10 μg/ml) to looped/cyclic peptide (PEPSCAN-ELISA) [5]: 76
- Binding of CRJA (10 μg/ml) to looped/cyclic peptide (PEPSCAN-ELISA) [6]: 92

Sequence: LMEADAHYKSVRTWN
- Binding of CRJA to linear peptide (PEPSCAN-ELISA signal) [1]: 46
- Binding of CR57 to linear peptide (PEPSCAN-ELISA signal) [2]: 73
- Binding of CR57 (10 μg/ml) to looped/cyclic peptide (PEPSCAN-ELISA) [3]: 41
- Binding of CRJB to linear peptide (PEPSCAN-ELISA signal) [4]: 107
- Binding of CRJB (10 μg/ml) to looped/cyclic peptide (PEPSCAN-ELISA) [5]: 72
- Binding of CRJA (10 μg/ml) to looped/cyclic peptide (PEPSCAN-ELISA) [6]: 43

Sequence: LPDVHNQVSGVDLGL
- Binding of human monoclonal antibody CRJA to linear peptide (PEPSCAN-ELISA signal) [1]: 97
- Binding of human monoclonal antibody CR57 to linear peptide (PEPSCAN-ELISA signal) [2]: 104
- Binding of CR57 to looped/cyclic peptide (PEPSCAN-ELISA signal) [3]: 116
- Binding of human monoclonal antibody CRJB to linear peptide (PEPSCAN-ELISA signal) [4]: 154
- Binding of CRJB to looped/cyclic peptide (PEPSCAN-ELISA signal) [5]: 118
- Binding of CRJA to looped/cyclic peptide (PEPSCAN-ELISA signal) [6]: 98
